Laboratory results taken from the C3SDB collision cross section collection.

Legend:
[1] = instrument: DT, stepped-field
[2] = instrument: DT, single field, calibrated with Agilent tune mix (Agilent)

Structure (SMILES) | collision cross section (N2) ([2]; [M+H]+) | collision cross section (N2) ([2]; [M-H]-) | other results
OC[C@H]1O[C@@H](O[C@H]2[C@H](O)[C@H](O)[C@H](O[C@H]3[C@H](O)[C@H](O)[C@H](O[C@H]4[C@H](O)[C@H](O)[C@H](O[C@H]5[C@H](O)[C@H](O)[C@H](O[C@H]6[C@H](O)[C@H](O)C(O)O[C@@H]6CO)O[C@@H]5CO)O[C@@H]4CO)O[C@@H]3CO)O[C@@H]2CO)[C@@H](O)[C@@H](O)[C@@H]1O (some centres not stated) [Mannohexaose] | – | – | collision cross section (N2) ([1]; [M+Na]+): 281.7 Å²
CC/C=C\C[C@H](O)[C@H](O)/C=C/C=C/C=C\C=C\[C@@H](O)C/C=C\CCC(=O)O [Resolvin D2] | – | – | collision cross section (N2) ([1]; [M+Na]+): 200.6 Å²
NC(=O)NC1NC(=O)NC1=O (configuration not stated) [Allantoin] | – | – | collision cross section (N2) ([1]; [M+Na]+): 145.61 Å²
COc1cc(-c2oc3cc(O)cc(O)c3c(=O)c2O)ccc1O [Isorhamnetin] | – | – | collision cross section (N2) ([1]; [M+H]+): 172.96 Å²; collision cross section (N2) ([1]; [M+Na]+): 195.91 Å²
CCCCCCCCCCCCCC(=O)OC[C@@H](O)COP(=O)([O-])OCC[N+](C)(C)C [LPC 14:0] | – | – | collision cross section (N2) ([1]; [M+H]+): 222 Å²; collision cross section (N2) ([1]; [M+Na]+): 225.77 Å²
N[C@@H](Cc1c[nH]c2ccc(O)cc12)C(=O)O [5-Hydroxy-L-Tryptophan] | – | – | collision cross section (N2) ([1]; [M+H]+): 157.88 Å²; collision cross section (N2) ([1]; [M+Na]+): 156.47 Å²
C[N+](C)(C)CCOP(=O)([O-])OC[C@H](O)CO [sn-Glycero-3-phosphocholine] | – | – | collision cross section (N2) ([1]; [M+H]+): 157.17 Å²; collision cross section (N2) ([1]; [M+Na]+): 161.8 Å²
CCCCCCCCCCCCC=CC[C@@H](O)[C@H](COP(=O)([O-])OCC[N+](C)(C)C)NC(=O)CCCCCCCCCCCCCCCC [SM(d18:1/17:0)] | – | – | collision cross section (N2) ([1]; [M+H]+): 290.12 Å²; collision cross section (N2) ([1]; [M+Na]+): 291.89 Å²
CCCCC/C=C\C=C\C(O)CCCCCCCC(=O)O (configuration not stated) [9-HODE] | – | – | collision cross section (N2) ([1]; [M+Na]+): 189.14 Å²
NC(N)=NCC(=O)O [Guanidinoacetic Acid] | – | – | collision cross section (N2) ([1]; [M+H]+): 126.88 Å²
O=C[C@H](O)[C@H](O)COP(=O)(O)O [D-Erythrose 4-Phosphate] | – | – | collision cross section (N2) ([1]; [M+Na]+): 153.89 Å²
O=C(O)[C@H](O)[C@@H](O)[C@H](O)[C@H](O)COP(=O)(O)O [6-Phosphogluconic Acid] | – | – | collision cross section (N2) ([1]; [M+Na]+): 167.16 Å²
O=C(O)[C@H]1C[C@@H](O)CN1 [cis-4-Hydroxy-D-proline] | 128.4 Å² | 122.02 Å² | –
O=C(O)C(COP(=O)(O)O)OP(=O)(O)O [2,3-Diphospho-D-glyceric acid] | – | – | collision cross section (N2) ([2]; [M+Na]+): 152.3 Å²
O=C(O)[C@@H](O)[C@H](O)[C@H](O)[C@@H](O)C(=O)O [D-Galactarate] | – | 130.24 Å² | collision cross section (N2) ([2]; [M+Na]+): 147.3 Å²
CC(=O)NCCCC[C@H](N)C(=O)O [N6-Acetyl-L-lysine] | 142.3 Å² | 139.75 Å² | –
Nc1nc(=O)c2nc(CNc3ccc(C(=O)N[C@@H](CCC(=O)O)C(=O)O)cc3)cnc2[nH]1 [Folate] | 195.5 Å² | – | –
C[C@@H](N)C(=O)N[C@H](C)C(=O)O [D-Alanyl-D-alanine] | – | 134.05 Å² | –
Nc1ncnc2c1ncn2[C@@H]1O[C@H](COP(=O)(O)OP(=O)(O)O)[C@@H](O)[C@H]1O [Adenosine 5'-diphosphate] | 186.1 Å² | – | –
C[N+](C)(C)CC=O [Betaine aldehyde] | 117.2 Å² | – | –
Cc1ncc(COP(=O)(O)O)c(C=O)c1O [Pyridoxal 5'-phosphate] | 151.4 Å² | 146.34 Å² | –

Structure (SMILES) | collision cross section (N2) ([2]; [M+H]+) | collision cross section (N2) ([2]; [M-H]-) | other results
O=C(O)C(CO)OP(=O)(O)O (racemic) [DL-2-Phosphoglycerate] | – | – | collision cross section (N2) ([2]; [M+Na]+): 141.8 Å²
CC(CC(=O)O)CC(=O)O [3-Methylglutaric acid] | – | 122.88 Å² | –
C[N+](C)(C)CCOP(=O)([O-])OC[C@H](O)CO [Glycerophosphocholine] | 155.5 Å² | – | –
O=C(O)Cc1ccc(O)c(O)c1 [3,4-Dihydroxyphenylacetic acid] | – | – | collision cross section (N2) ([2]; [M-H2O-H]-): 125.7 Å²
OC[C@@H](O)C(O)[C@@H](O)CO (some centres not stated) [Ribitol] | – | – | collision cross section (N2) ([2]; [M+Na]+): 136.3 Å²
CC1=C(/C=C/C(C)=C\C=C\C(C)=C\C=O)C(C)(C)CCC1 [9-cis-Retinal] | 170.1 Å² | – | –
CCCCCCCCCCCCC/C=C/[C@@H](O)[C@@H](N)CO [Sphingosine] | 186 Å² | – | –
CC(=O)N[C@H]1[C@@H](OP(=O)(O)OP(=O)(O)OC[C@H]2O[C@@H](n3ccc(=O)[nH]c3=O)[C@H](O)[C@@H]2O)O[C@H](CO)[C@@H](O)[C@@H]1O [UDP-N-acetylglucosamine] | 208.8 Å² | 222 Å² | –
NCCCNCCCCNCCCN [Spermine] | 148.2 Å² | – | –
CCCC(=O)SCCNC(=O)CCNC(=O)[C@H](O)C(C)(C)COP(=O)(O)OP(=O)(O)OC[C@H]1O[C@@H](n2cnc3c(N)ncnc32)[C@H](O)[C@@H]1OP(=O)(O)O [Butyryl-coenzyme A] | – | 253.26 Å² | –
C[C@H](O)[C@H](O)C1=Nc2c([nH]c(N)nc2=O)NC1 [7,8-Dihydrobiopterin] | 154.1 Å² | – | –
CCCCC/C=C/C(=O)O [trans-2-Octenoic acid] | – | 141.13 Å² | –
CNCC(O)c1ccc(O)cc1 (configuration not stated) [Synephrine] | – | – | collision cross section (N2) ([2]; [M+H-H2O]+): 134.4 Å²
O=C([O-])c1cccnc1 [Nicotinate] | 124 Å² | – | –
CC(=O)OCC[N+](C)(C)C [Acetylcholine] | 129.7 Å² | – | –
CCCCCCCCCCCCCCC[C@@H](O)[C@@H](N)CO [Sphinganine] | 188 Å² | – | –
Nc1ncnc2c1ncn2[C@@H]1O[C@H](COP(=O)(O)OP(=O)(O)OC[C@@H](O)[C@@H](O)[C@@H](O)C=O)[C@@H](O)[C@H]1O [ADP Ribose] | 211.4 Å² | – | –
NC(CCCC(=O)O)C(=O)O (racemic) [DL-2-Aminoadipic acid] | 134.4 Å² | 127.69 Å² | –
OC1C(O)C(O)C(O)C(O)C1O (configuration not stated) [myo-Inositol] | – | 128.61 Å² | collision cross section (N2) ([2]; [M+Na]+): 148.2 Å²
NC(N)=NCC(=O)O [Guanidoacetic acid] | 124.8 Å² | – | –

Now from value to compound, other results behind:

collision cross section (N2) ([2]; [M+H]+) | collision cross section (N2) ([2]; [M-H]-) | Structure (SMILES) | other results
216.6 Å² | 208.52 Å² | Cc1c(C)c2c(c(C)c1O)CC[C@@](C)(CCC[C@H](C)CCC[C@H](C)CCCC(C)C)O2 [alpha-Tocopherol] | –
154.3 Å² | 153.53 Å² | COc1ccc2[nH]cc(CCNC(C)=O)c2c1 [Melatonin] | –
– | 129.79 Å² | CC1=CC(=O)c2ccccc2C1=O [Menadione] | –
198.2 Å² | 186.44 Å² | NC(Cc1cc(I)c(Oc2ccc(O)cc2)c(I)c1)C(=O)O (configuration not stated) [3,5-Diiodothyronine] | –
303.8 Å² | 294.98 Å² | CC[C@H](C)[C@@H]1NC(=O)[C@H](Cc2ccc(O)cc2)NC(=O)[C@@H](N)CSSC[C@@H](C(=O)N2CCC[C@H]2C(=O)N[C@@H](CC(C)C)C(=O)NCC(N)=O)NC(=O)[C@H](CC(N)=O)NC(=O)[C@H](CCC(N)=O)NC1=O [Oxytocin] | –
164.3 Å² | 170.63 Å² | C[C@]12CC[C@@H]3c4ccc(O)cc4CC[C@H]3[C@@H]1CCC2=O [Estrone] | –
191.5 Å² | – | Nc1nc(=O)c2ncn([C@@H]3O[C@H](COP(=O)(O)OP(=O)(O)O)[C@@H](O)[C@H]3O)c2[nH]1 [GDP] | –
– | 157.84 Å² | O=C(O)c1ccccc1O[C@@H]1O[C@H](C(=O)O)[C@@H](O)[C@H](O)[C@H]1O [1-Salicylate glucuronide] | collision cross section (N2) ([2]; [M+Na]+): 170.1 Å²
– | 192.06 Å² | Nc1nc(=O)c2c([nH]1)NCC1CN(c3ccc(C(=O)NC(CCC(=O)O)C(=O)O)cc3)CN21 (configuration not stated) [5,10-methylene-THF] | –
170.6 Å² | 169.16 Å² | CN(C)c1nc(=O)c2ncn([C@@H]3O[C@H](CO)[C@@H](O)[C@H]3O)c2[nH]1 [N2,N2-Dimethylguanosine] | –
140.5 Å² | 132.51 Å² | O=C(O)c1cc(=O)c2cccc(O)c2[nH]1 [Xanthurenic acid] | –
– | 185.89 Å² | C[C@]12CC[C@H]3[C@@H](CC=C4C[C@@H](O)CC[C@@]43C)[C@@H]1CC[C@@H]2C(=O)CO [21-Hydroxypregnenolone] | collision cross section (N2) ([2]; [M+H-H2O]+): 178.4 Å²
– | 217.74 Å² | CC(C)CC[C@@H](O)[C@@H](C)[C@H]1CC[C@H]2[C@@H]3CC=C4C[C@@H](O)CC[C@]4(C)[C@H]3CC[C@]12C [22beta-Hydroxycholesterol] | collision cross section (N2) ([2]; [M+H-H2O]+): 205.2 Å²
– | 119.33 Å² | O=C(O)c1ccc([O-])cc1 [4-Hydroxybenzoate] | collision cross section (N2) ([2]; [M+H-H2O]+): 119 Å²
– | 188.85 Å² | C[C@]12CC[C@@H]3c4ccc(OS(=O)(=O)O)cc4CC[C@H]3[C@@H]1CCC2=O [Estrone 3-sulfate] | –
134.6 Å² | – | CC1=CC(=O)c2ccccc2C1=O [Menadione (Vitamin K3)] | –
151.7 Å² | 153.4 Å² | O=c1nc[nH]c2c1ncn2[C@H]1C[C@H](O)[C@@H](CO)O1 [Deoxyinosine] | –
– | 148.86 Å² | N[C@@H](Cc1c[nH]c2ccc(O)cc12)C(=O)O [5-Hydroxy-L-tryptophan] | collision cross section (N2) ([2]; [M+Na]+): 152.2 Å²
205.8 Å² | – | CC(C)[C@@H](C)/C=C/[C@@H](C)[C@H]1CC[C@H]2/C(=C/C=C3\C[C@@H](O)CC[C@@H]3C)CCC[C@]12C [Dihydrotachysterol] | –
137.4 Å² | – | COc1ccc(CC(=O)O)cc1 [4-Methoxyphenylacetic acid] | –
– | 124.17 Å² | CC(=O)Nc1ccccc1 [N-Phenylacetamide] | –
